Laboratory results published in PubChem BioAssay AID330 (DTP/NCI, 2004).
“And” between values parts separate entries of the source, which are not always exact repeats. Identical values can stand only once. Inconclusive results and toxic doses are left out. How the source made its calls: active means survival T/C of 150% or more; inactive means T/C below 125% in these data.

System: P388 leukemia ip, CD2F1 mice, survival T/C
Test: NCI In Vivo Anticancer Drug Screen. Data for tumor model P388 Leukemia (intraperitoneal) in CD2F1 (CDF1) mice
Conditions: endpoint: median survival time, higher = longer survival
Procedure, shortened: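 Mice carrying the transplanted tumor received test compound or vehicle. Survival was recorded in each group, and the value is the treated-group measurement divided by that of the vehicle-treated control group.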

[1] = dose: 100.0 mg/kg/injection, schedule: Q01DX001 (ip), vehicle: Klucel (hydroxypropylcellulose) (HPC)
[2] = dose: 200.0 mg/kg/injection, schedule: Q01DX001 (ip), vehicle: Klucel (hydroxypropylcellulose) (HPC)
[3] = dose: 12.5 mg/kg/injection, schedule: Q01DX009 (ip), vehicle: saline with Tween-80
[4] = dose: 25.0 mg/kg/injection, schedule: Q01DX009 (ip), vehicle: saline with Tween-80
[5] = dose: 50.0 mg/kg/injection, schedule: Q01DX009 (ip), vehicle: saline with Tween-80
[6] = dose: 50.0 mg/kg/injection, schedule: Q01DX005 (ip), vehicle: Klucel (hydroxypropylcellulose) (HPC)
[7] = dose: 100.0 mg/kg/injection, schedule: Q01DX005 (ip), vehicle: Klucel (hydroxypropylcellulose) (HPC)
[8] = dose: 200.0 mg/kg/injection, schedule: Q01DX005 (ip), vehicle: Klucel (hydroxypropylcellulose) (HPC)
[9] = dose: 400.0 mg/kg/injection, schedule: Q01DX001 (ip), vehicle: Klucel (hydroxypropylcellulose) (HPC)
[10] = dose: 60.0 mg/kg/injection, schedule: Q01DX005 (ip), vehicle: Klucel (hydroxypropylcellulose) (HPC)
[11] = dose: 120.0 mg/kg/injection, schedule: Q01DX005 (ip), vehicle: Klucel (hydroxypropylcellulose) (HPC)
[12] = dose: 100.0 mg/kg/injection, schedule: Q01DX009 (ip), vehicle: saline with Tween-80
[13] = dose: 50.0 mg/kg/injection, schedule: Q01DX009 (ip), vehicle: Klucel (hydroxypropylcellulose) (HPC)
[14] = dose: 100.0 mg/kg/injection, schedule: Q01DX009 (ip), vehicle: Klucel (hydroxypropylcellulose) (HPC)
[15] = dose: 200.0 mg/kg/injection, schedule: Q01DX009 (ip), vehicle: Klucel (hydroxypropylcellulose) (HPC)

Measured: T/C

O=C1C(Cl)=C(Cl)C(=O)c2ccccc21
inactive: dose: 5.0 mg/kg/injection, schedule: Q01DX009 (ip), vehicle: saline with Tween-80 109 % of control | dose: 5.0 mg/kg/injection, schedule: Q04DX003 (ip), vehicle: saline with Tween-80 100 % of control | dose: 10.0 mg/kg/injection, schedule: Q01DX009 (ip), vehicle: saline with Tween-80 109 % of control | dose: 10.0 mg/kg/injection, schedule: Q04DX003 (ip), vehicle: saline with Tween-80 100 % of control | dose: 20.0 mg/kg/injection, schedule: Q01DX009 (ip), vehicle: saline with Tween-80 109 % of control | dose: 20.0 mg/kg/injection, schedule: Q04DX003 (ip), vehicle: saline with Tween-80 95 % of control

Nc1ncc[n+]2c(COCCCl)[nH]nc12
inactive: [1] 92 % of control | [2] 92 % of control

Cc1cc2cc3c(=O)n(C)c(=O)nc-3n(CC(O)C(O)C(O)CO)c2cc1C (configuration not stated)
inactive: dose: 15.0 mg/kg/injection, schedule: Q01DX009 (ip), vehicle: saline with Tween-80 98 % of control | dose: 30.0 mg/kg/injection, schedule: Q01DX009 (ip), vehicle: saline with Tween-80 98 % of control | dose: 60.0 mg/kg/injection, schedule: Q01DX009 (ip), vehicle: saline with Tween-80 113 % of control

CCCCN(CCCC)CCC(=O)c1ccc(OC)c2ccccc12
inactive: [3] 110 % of control | [4] 119 % of control | [5] 111 % of control

C[n+]1ccccc1-c1nc(-c2cccc[n+]2C)nc(-c2cccc[n+]2C)n1
inactive: dose: 12.5 mg/kg/injection, schedule: Q01DX009 (ip), vehicle: Klucel (hydroxypropylcellulose) (HPC) 96 % of control | dose: 25.0 mg/kg/injection, schedule: Q01DX009 (ip), vehicle: Klucel (hydroxypropylcellulose) (HPC) 88 % of control

COc1cc([C@H]2c3cc(O)c(OC)cc3C[C@]3(O)[C@@H]2CO[C@@H]3O)ccc1O
inactive: dose: 4.75 mg/kg/injection, schedule: Q01DX005 (ip), vehicle: saline with Tween-80 104 % of control | dose: 9.5 mg/kg/injection, schedule: Q01DX005 (ip), vehicle: saline with Tween-80 95 % of control | dose: 19.0 mg/kg/injection, schedule: Q01DX005 (ip), vehicle: saline with Tween-80 96 % of control | dose: 38.0 mg/kg/injection, schedule: Q01DX005 (ip), vehicle: saline with Tween-80 99 % of control

N#CCc1csc2ccccc12
inactive: [6] 117 % of control | [7] 115 % of control | [8] 112 % of control

CC(=O)N=c1nc(N)nc2n(O)cc(-c3ccccc3)nc1-2
inactive: dose: 31.25 mg/kg/injection, schedule: Q01DX009 (ip), vehicle: saline with Tween-80 113 % of control | dose: 62.5 mg/kg/injection, schedule: Q01DX009 (ip), vehicle: saline with Tween-80 99 % of control | dose: 125.0 mg/kg/injection, schedule: Q01DX009 (ip), vehicle: saline with Tween-80 97 % of control

O=C1Sc2ccccc2C(=O)N2CCCC12 (configuration not stated)
inactive: dose: 60.0 mg/kg/injection, schedule: Q01DX005 (ip), vehicle: saline with Tween-80 97 % of control | dose: 120.0 mg/kg/injection, schedule: Q01DX005 (ip), vehicle: saline with Tween-80 99 % of control | dose: 240.0 mg/kg/injection, schedule: Q01DX005 (ip), vehicle: saline with Tween-80 100 % of control

CCOC(=O)C(CCCCn1cnc2ncnc(Cl)c21)(NC(C)=O)C(=O)OCC
inactive: [1] 105 % of control | [2] 107 % of control | [9] 102 % of control

c1ccc(Cn2nnnc2Nc2ccccc2)cc1
inactive: dose: 25.0 mg/kg/injection, schedule: Q01DX005 (ip), vehicle: Klucel (hydroxypropylcellulose) (HPC) 94 % of control | [6] 88 % of control and 97 % of control | [7] 94 % of control | [8] 90 % of control

COC(=O)NC(NC(=O)OC)C(F)(F)C(NC(=O)OC)NC(=O)OC
inactive: [10] 96 % of control | [11] 95 % of control

Nn1c(-c2cnns2)n[nH]c1=S
inactive: [1] 100 % of control | [2] 100 % of control | [9] 105 % of control

CCCCCC(C[N+]1(C)CCOCC1)C(=O)/C=C/c1ccccc1 (configuration not stated)
inactive: [3] 96 % of control | dose: 12.5 mg/kg/injection, schedule: Q01DX009 (ip), vehicle: saline 108 % of control | [4] 108 % of control | dose: 25.0 mg/kg/injection, schedule: Q01DX009 (ip), vehicle: saline 108 % of control

COC(=O)C1(N2CCOCC2)CCC([C@@H](c2ccccc2)C(C)[N+](=O)[O-])C1 (some centres not stated)
inactive: [10] 100 % of control | [11] 98 % of control | dose: 240.0 mg/kg/injection, schedule: Q01DX005 (ip), vehicle: Klucel (hydroxypropylcellulose) (HPC) 99 % of control

C1CC[N-]CC1.CC(=N\O)/C(C)=N/O.CC(=N\O)/C(C)=N/O.N#C[CH-]CC#N.[Co+2]
inactive: [3] 91 % of control | [4] 96 % of control | [5] 97 % of control | [12] 92 % of control

c1cc(C2CCOCC2)ccn1
inactive: [3] 100 % of control | dose: 12.5 mg/kg/injection, schedule: Q04DX003 (ip), vehicle: saline with Tween-80 100 % of control | [4] 90 % of control | dose: 25.0 mg/kg/injection, schedule: Q04DX003 (ip), vehicle: saline with Tween-80 100 % of control | [5] 100 % of control | dose: 50.0 mg/kg/injection, schedule: Q04DX003 (ip), vehicle: saline with Tween-80 95 % of control

S=c1[nH]c2ccccc2n1CCc1ccncc1
inactive: dose: 25.0 mg/kg/injection, schedule: Q01DX007 (ip), vehicle: Klucel (hydroxypropylcellulose) (HPC) 104 % of control | dose: 25.0 mg/kg/injection, schedule: Q01DX008 (ip), vehicle: Klucel (hydroxypropylcellulose) (HPC) 103 % of control | dose: 50.0 mg/kg/injection, schedule: Q01DX007 (ip), vehicle: Klucel (hydroxypropylcellulose) (HPC) 104 % of control | dose: 50.0 mg/kg/injection, schedule: Q01DX008 (ip), vehicle: Klucel (hydroxypropylcellulose) (HPC) 106 % of control | [13] 93 % of control | dose: 100.0 mg/kg/injection, schedule: Q01DX007 (ip), vehicle: Klucel (hydroxypropylcellulose) (HPC) 99 % of control | dose: 100.0 mg/kg/injection, schedule: Q01DX008 (ip), vehicle: Klucel (hydroxypropylcellulose) (HPC) 100 % of control | [14] 94 % of control | dose: 200.0 mg/kg/injection, schedule: Q01DX007 (ip), vehicle: Klucel (hydroxypropylcellulose) (HPC) 106 % of control | dose: 200.0 mg/kg/injection, schedule: Q01DX008 (ip), vehicle: Klucel (hydroxypropylcellulose) (HPC) 106 % of control | [15] 94 % of control

CC(C)(O)c1ccccc1Br
inactive: [13] 98 % of control | [14] 99 % of control | [15] 102 % of control

CC1=CCCC1C1C=CCC1 (configuration not stated) (tested in a mixture with another compound)
inactive: [4] 102 % of control | [5] 103 % of control and 105 % of control | [12] 116 % of control

CC1(C)NC(=O)N(CCCCCCN2C(=O)NC(C)(C)C2=O)C1=O
inactive: [6] 94 % of control | [7] 102 % of control | dose: 400.0 mg/kg/injection, schedule: Q01DX005 (ip), vehicle: Klucel (hydroxypropylcellulose) (HPC) 90 % of control

COc1ccc(CC#N)c(C(=O)O)c1
inactive: [6] 106 % of control | [7] 103 % of control | [8] 101 % of control

CCc1ccc[n+](-c2ccncc2CC)c1
inactive: dose: 15.0 mg/kg/injection, schedule: Q01DX005 (ip), vehicle: saline 96 % of control | dose: 30.0 mg/kg/injection, schedule: Q01DX005 (ip), vehicle: saline 100 % of control | dose: 60.0 mg/kg/injection, schedule: Q01DX005 (ip), vehicle: saline 106 % of control and 88 % of control

C#CCN1CCCCC1
inactive: dose: 12.5 mg/kg/injection, schedule: Q01DX005 (ip), vehicle: saline 105 % of control | dose: 25.0 mg/kg/injection, schedule: Q01DX005 (ip), vehicle: saline 100 % of control | dose: 50.0 mg/kg/injection, schedule: Q01DX005 (ip), vehicle: saline 100 % of control and 107 % of control
